Data published in patent publication US6506766B1 (Abbott Laboratories, priority 1998, dated 2003).

Tests used:
[1] = biological target: T1, human progesterone receptor-A [PRA] isoform (Homo sapiens, UniProt P06401); assay: Radioligand binding with human progesterone receptor cytosol ([3H]-progesterone competition); conditions: PRA cytosol expressed in insect SF21 cells, [3H]Prog ~0.8 nM, 4° C. overnight; Ki by Cheng-Prusoff, KL ~4.5 nM; read-out: Ki (nM) PR
T1 construct: host or cells: insect SF21 cells (baculovirus)
T1 sequence (P06401 1-769 isoform P06401-2): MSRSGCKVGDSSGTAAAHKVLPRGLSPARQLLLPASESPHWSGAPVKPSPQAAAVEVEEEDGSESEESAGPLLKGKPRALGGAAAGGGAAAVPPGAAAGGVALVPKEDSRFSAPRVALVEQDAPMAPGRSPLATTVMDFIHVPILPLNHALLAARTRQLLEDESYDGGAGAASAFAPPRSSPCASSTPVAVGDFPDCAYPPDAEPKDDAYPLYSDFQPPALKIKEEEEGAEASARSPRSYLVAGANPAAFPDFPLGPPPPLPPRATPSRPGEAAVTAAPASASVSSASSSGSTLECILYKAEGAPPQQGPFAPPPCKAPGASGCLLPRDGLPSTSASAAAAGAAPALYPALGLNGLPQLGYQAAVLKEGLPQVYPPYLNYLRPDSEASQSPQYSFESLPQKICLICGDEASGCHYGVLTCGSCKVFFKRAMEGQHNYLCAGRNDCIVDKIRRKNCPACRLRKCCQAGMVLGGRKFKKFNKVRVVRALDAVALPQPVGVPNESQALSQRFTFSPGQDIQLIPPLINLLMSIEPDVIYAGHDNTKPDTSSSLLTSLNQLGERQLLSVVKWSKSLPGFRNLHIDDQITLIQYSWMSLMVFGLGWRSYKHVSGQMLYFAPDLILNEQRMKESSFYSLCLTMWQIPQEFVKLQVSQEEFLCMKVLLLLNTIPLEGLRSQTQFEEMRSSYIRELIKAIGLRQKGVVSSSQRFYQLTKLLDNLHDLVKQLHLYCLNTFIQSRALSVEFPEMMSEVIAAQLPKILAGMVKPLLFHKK

[2] = biological target: T2, human glucocorticoid receptor-α [GRX] isoform (Homo sapiens, UniProt P04150); assay: Radioligand binding with human glucocorticoid receptor cytosol ([3H]-dexamethasone competition); conditions: GRX cytosol expressed in insect SF21 cells, [3H]-Dex ~0.9 nM, 4° C. overnight; Ki by Cheng-Prusoff, KL ~[…]; read-out: Ki (nM) GR
T2 construct: host or cells: insect SF21 cells (baculovirus)
T2 sequence (P04150 1-777): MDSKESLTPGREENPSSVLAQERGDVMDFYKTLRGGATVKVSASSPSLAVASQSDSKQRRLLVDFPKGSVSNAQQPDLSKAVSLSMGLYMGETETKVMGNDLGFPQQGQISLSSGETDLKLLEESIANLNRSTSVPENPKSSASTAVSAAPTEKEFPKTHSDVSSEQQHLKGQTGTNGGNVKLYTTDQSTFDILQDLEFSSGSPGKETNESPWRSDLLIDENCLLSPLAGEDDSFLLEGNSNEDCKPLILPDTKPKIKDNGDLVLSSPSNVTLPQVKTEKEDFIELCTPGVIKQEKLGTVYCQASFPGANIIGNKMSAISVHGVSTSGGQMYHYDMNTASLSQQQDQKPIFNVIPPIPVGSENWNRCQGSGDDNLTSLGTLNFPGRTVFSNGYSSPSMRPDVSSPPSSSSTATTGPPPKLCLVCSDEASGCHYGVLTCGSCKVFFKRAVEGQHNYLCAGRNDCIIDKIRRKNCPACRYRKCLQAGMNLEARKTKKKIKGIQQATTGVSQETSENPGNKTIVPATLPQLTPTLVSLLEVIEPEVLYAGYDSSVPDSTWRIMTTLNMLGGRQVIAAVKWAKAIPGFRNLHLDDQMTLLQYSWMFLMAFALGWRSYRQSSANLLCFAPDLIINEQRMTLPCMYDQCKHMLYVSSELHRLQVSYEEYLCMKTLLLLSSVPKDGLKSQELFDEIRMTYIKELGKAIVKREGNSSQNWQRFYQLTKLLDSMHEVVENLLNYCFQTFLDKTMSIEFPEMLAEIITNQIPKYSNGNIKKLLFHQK

Structure (SMILES) | Ki [1] [nM] | Ki [2] [nM]
CC1=CC(C)(C)Nc2ccc3c(c21)C(c1ccccc1)Oc1cccc(C=O)c1-3 (stereo not shown) [Example 337, 2,5-Dihydro-10-formyl-5-phenyl-2,2,4-trimethyl-1H-[1]benzopyrano[3,4-f]quinoline] | 702 | 3.3
COCc1cccc2c1-c1ccc3c(c1C(c1ccccc1)O2)C(C)=CC(C)(C)N3 (stereo not shown) [Example 338, 2,5-Dihydro-10-(methoxymethyl)-5-phenyl-2,2,4-trimethyl-1H-[1]benzopyrano[3,4-f]quinoline] | ≥ 10000 | 61
C=Cc1cccc2c1-c1ccc3c(c1C(C1C=CCCC1)O2)C(C)=CC(C)(C)N3 (stereo not shown) [Example 340] | 254 | 1.8
C=CCC1Oc2cccc(SC)c2-c2ccc3c(c21)C(C)=CC(C)(C)N3 (stereo not shown) [Example 342, 2,5-Dihydro-5-(3-propenyl)-10-methylthio-2,2,4-trimethyl-1H-[1]benzopyrano[3,4-f]quinoline] | ≥ 10000 | 2590
C=CCC1Oc2cccc(SC)c2-c2ccc3c(c21)C(C)=CC(C)(C)N3 (stereo not shown) [Example 343, 2,5-Dihydro-5-(3-propenyl)-10-methylthio-2,2,4-trimethyl-1H-[1]benzopyrano[3,4-f]quinoline] | 4700 | 5.2
CC1=CC(C)(C)Nc2ccc3c(c21)C(c1ccccc1)Oc1cccc(OC(F)(F)Br)c1-3 (stereo not shown) [Example 346, 10-(Bromodifluoromethoxy)-2,5-dihydro-5-phenyl-2,2,4-trimethyl-1H-[1]benzopyrano[3,4-f]quinoline] | 5110 | 44
COc1cccc2c1-c1ccc3c(c1C(=Cc1cccc(Cl)n1)O2)C(C)=CC(C)(C)N3 [Example 352] | ≥ 10000 | 58
CCC(C)=C1Oc2cccc(OC)c2-c2ccc3c(c21)C(C)=CC(C)(C)N3 [Example 355, 10-Methoxy-5-(1-methylpropylidene)-2,5-dihydro-5-phenyl-2,2,4-trimethyl-1H-[1]benzopyrano[3,4-f]quinoline] | 4280 | 27
C=CCC1Oc2cccc(OC)c2-c2ccc3c(c21)C(C)=CC1(CCOCC1)N3 (stereo not shown) [Example 359, 2,5-Dihydro-10-methoxy-2,2-[spiro(tetrahydro-4-pyranyl)]-4-methyl-5-ally-1H-[1]benzopyrano[3,4-f]quinoline] | 2220 | 11.3
C=CCC1Oc2cccc(OC)c2-c2ccc3c(c21)C(C)=CC(CC)(CC)N3 (stereo not shown) [Example 361, 2,5-Dihydro-10-methoxy-2,2-diethyl-4-methyl-5-allyl-1H-[1]benzopyrano[3,4-f]quinoline] | 9140 | 95.7
C=CCC1Oc2cccc(OC)c2-c2ccc3c(c21)C(C)=C(C)C(C)(C)N3 (stereo not shown) [Example 362, 2,5-Dihydro-10-methoxy-2,2,3,4-tetramethyl-5-allyl-1H-[1]benzopyrano[3,4-f]quinoline] | 3370 | 6.5
C=CCC1Oc2cccc(OC)c2-c2ccc3c(c21)C(CC)=CC(C)(C)N3 (stereo not shown) [Example 363, 2,5-Dihydro-10-methoxy-2,2-dimethyl-4-ethyl-5-allyl-1H-[1]benzopyrano[3,4-f]quinoline] | 3940 | 5
COc1c(O)ccc2c1-c1ccc3c(c1/C(=C/c1cc(F)ccc1F)O2)C(C)=CC(C)(C)N3 [Example 366, Z-5-(2,5-Difluorobenzylidenyl)-9-hydroxy-10-methoxy-2,2,4-trimethyl-1H-2,5-dihydro-[1]benzopyrano[3,4-f]quinoline] | 83.9 | 2.1
CC1=CC(C)(C)Nc2ccc3c(c21)/C(=C/c1ccccn1)Oc1ccc(O)c(Cl)c1-3 [Example 368, Z-10-Chloro-9-hydroxy-5-(2-picolinylidenyl)-2,2,4-trimethyl-2,5-dihydro-1H-[1]benzopyrano[3,4-f]quinoline] | 61 | 0.21
COc1c(O)ccc2c1-c1ccc3c(c1/C(=C/c1ccccn1)O2)C(C)=CC(C)(C)N3 [Example 369, Z-9-Hydroxy-10-methoxy-5-(2-picolinylidenyl)-2,2,4-trimethyl-2,5-dihydro-1H-[1]benzopyrano[3,4-f]quinoline] | 2530 | 0.41
COc1c(O)ccc2c1-c1ccc3c(c1/C(=C/c1cccc(F)c1F)O2)C(C)=CC(C)(C)N3 [Example 373, (Z)-9-Hydroxy-10-methoxy-5-([2,3-difluorophenyl]methylene)-2,2,4-trimethyl-1H-2,5-dihydro-[1]benzopyrano[3,4-f]quinoline] | 279 | 3.1

Results, then the compound that gave them:

Ki [1] [nM] | Ki [2] [nM] | Structure (SMILES)
≥ 10000 | 2.5 | C=Cc1cccc2c1-c1ccc3c(c1C(C1C=C(C)CCC1)O2)C(C)=CC(C)(C)N3 (stereo not shown) [Example 341]
3000 | 8.7 | CC1=CC(C)(C)Nc2ccc3c(c21)C(c1ccccc1)Oc1cccc(OC(F)F)c1-3 (stereo not shown) [Example 345, 10-(Difluoromethoxy)-2,5-dihydro-5-phenyl-2,2,4-trimethyl-1H-[1]benzopyrano[3,4-f]quinoline]
≥ 10000 | 128 | C=C1CC(C)(C)Nc2ccc3c(c21)C(c1ccccc1)Oc1cccc(OC(F)(F)Br)c1-3 (stereo not shown) [Example 347, 10-(Bromodifluoromethoxy)-5-phenyl-2,2-dimethyl-4-methylene-2,3,4,5-tetrahydro-1H-chromeno[3,4-f]quinoline]
171 | 0.89 | COc1c(O)ccc2c1-c1ccc3c(c1C(Cc1ccccc1F)O2)C(C)=CC(C)(C)N3 (stereo not shown) [Example 348, 2,5-Dihydro-9-hydroxy-10-methoxy-2,2,4-trimethyl-5-((2-fluorophenyl)methyl)-1H-[1]benzopyranol[3,4-f]quinoline]
≥ 10000 | 6.22 | COc1cccc2c1-c1ccc3c(c1C(=Cc1cc(C)no1)O2)C(C)=CC(C)(C)N3 [Example 350, 10-Methoxy-5-(3-methylisoxazol-5-yl)methyidene-2,5-dihydro-5-phenyl-2,2,4-trimethyl-1H-[1]benzopyrano[3,4-f]quinoline]
≥ 10000 | 59.8 | COc1cccc2c1-c1ccc3c(c1C(c1ccccc1)O2)C(C)=[N+]([O-])C(C)(C)N3 (stereo not shown) [Example 357, 2,5-Dihydro-10-methoxy-2,2,4-trimethyl-3-oxide-5-phenyl-1H-[1]benzopyrano[3,4-f]quinazoline]
8960 | 4.2 | COc1cccc2c1-c1ccc3c(c1C(c1ccccc1)O2)C(C)=NC(C)(C)N3 (stereo not shown) [Example 358, 2,5-Dihydro-10-methoxy-2,2,4-trimethyl-5-phenyl-1H-[1]benzopyrano[3,4-f]quinazoline]
≥ 10000 | 424 | C=CCC1Oc2cccc(OC)c2-c2ccc3c(c21)C=C(C)C(C)(C)N3 (stereo not shown) [Example 364, 2,5-Dihydro-10-methoxy-2,2,3-trimethyl-5-allyl-1H-[1]benzopyrano[3,4-f]quinoline]
164 | 1.8 | COc1c(O)ccc2c1-c1ccc3c(c1/C(=C/c1ccc(F)cc1)O2)C(C)=CC(C)(C)N3 [Example 372, (Z)9-Hydroxy-10-methoxy-5-((4-fluorophenyl)methylene)-2,2,4-trimethyl-1H-2,5-dihydro-[1]benzopyrano[3,4-f]quinoline]
222 | 9 | COc1c(O)ccc2c1-c1ccc3c(c1/C(=C/c1cccc(F)c1)O2)C(C)=CC(C)(C)N3 [Example 374, Z-5-(3-Fluorobenzylidenyl)-10-methoxy-9-hydroxy-2,2,4-trimethyl-2,5-dihydro-1H-[1]benzopyrano[3,4-f]quinoline]
